US20260199213A1, “PEPTIDE HAVING ACTIVITY OF IMPROVING STATE OF SKIN, AND USE THEREOF” (CAREGEN CO., LTD., priority 2022, published 2026)

Legend:
aquaporin-3 (AQP3) = test: AQP3 expression by RT-PCR in HaCaT cells; format: cell-based; details: 10 μM, 50 μM or 1000 μM peptide, 24 hours
Description: In this example, the aim was to confirm the effect of the peptides according to an example on strengthening the skin barrier, by evaluating the expression levels of sirtuin-1 (SIRT-1) or aquaporin-3 (AQP3).
Specifically, HaCaT cells were seeded in a 6-well plate at a density of 3×10^5 cells/well and cultured for 24 hours. Next, the cells were washed once with serum-free DMEM media, and 10 μM, 50 μM or 1000 μM of the peptide consisting of the amino acid sequence of SEQ ID NO: 1 was dispensed into 1 mL of the serum-free media, and cultured in a CO2 incubator at 37° C. for 24 hours. Next, the culture was washed twice with PBS, and RNA was isolated from the culture using easy blue (iNtRON, Cat. No.: 17061, Korea). Next, using an RT kit (Enzynomics, Cat. NO.: RT200, Korea), the isolated RNA was reverse transcribed to synthesize the respective cDNA. Next, using the synthesized 1 ug cDNA, primers for SIRT-1 or AQP3, and a PCR kit (Enzynomics, Cat. No.: P581T, Korea), polymerase chain reaction (PCR) was performed. Meanwhile, in this example, an untreated group was used as the control group, and a group to which EGF was added was used as a positive control group, the nucleotide sequences of the primers used in this example are shown in Table 3 below.

AQP3 = AQP3 expression reduced by ultraviolet rays in HaCaT cells (RT-PCR); format: cell-based; details: 15 mJ/cm^2 UV, 10 μM, 50 μM or 1000 μM peptide, 8 hours
Description: In this example, the aim was to confirm the effect of the peptide according to an embodiment on the recovery of skin barrier factors in damaged skin cells by evaluating changes in the levels of skin barrier factors in skin cells reduced by ultraviolet irradiation.
Specifically, HaCaT cells were seeded in a 6-well plate at a density of 5×10^5 cells/well and cultured for 24 hours. Next, the cells were washed once with serum-free DMEM media, and 10 μM, 50 μM or 1000 μM of the peptide consisting of the amino acid sequence of SEQ ID NO: 1 was dispensed into 1 mL of the serum-free media, and cultured in a CO2 incubator at 37° C. for 1 hour. Next, the above culture was transferred to an e-tube, mixed with 1 ml of PBS, and dispensed into a well plate. Next, using a UV irradiator (VILBER LOURMAT, Cat No.: 3102-BSU, France), 15 mJ/cm^2 ultraviolet rays were irradiated to the HaCaT cells. Next, the PBS in the well plate was removed, 900 μL of the culture medium in which the peptides were dispensed was added, and the plate was cultured in a CO2 incubator at 37° C. for 8 hours. Next, the culture was washed twice with PBS, and RNA was isolated from the culture using easy blue (iNtRON, Cat. No.: 17061, Korea). Next, using an RT kit (Enzynomics, Cat. NO.: RT200, Korea), the isolated RNA was reverse transcribed to synthesize the respective cDNA. […]

Substance: GPRGDP [SEQ ID NO: 1]
- expression of skin barrier factor AQP3 (aquaporin-3 (AQP3)): increases
- expression of AQP3 reduced by ultraviolet irradiation (AQP3): increased or restored
